From patent US10519140B2, “Indolin-2-one derivatives” (Hoffmann-La Roche Inc., priority 2015, dated 2019)
pIC50: −log10 of the molar value.

molecular target: T1, mouse ENT-1 transporter (Mus musculus, UniProt Q9JIM1); experiment: Adenosine transport activity (ENT1, [3H]-adenosine uptake inhibition); type: cell-based; conditions: stable cells expressing mouse ENT-1; [2,8-3H]-adenosine 6 nM, 20 min
T1 construct: expressed in transfected cells
T1 sequence (Q9JIM1 1-460): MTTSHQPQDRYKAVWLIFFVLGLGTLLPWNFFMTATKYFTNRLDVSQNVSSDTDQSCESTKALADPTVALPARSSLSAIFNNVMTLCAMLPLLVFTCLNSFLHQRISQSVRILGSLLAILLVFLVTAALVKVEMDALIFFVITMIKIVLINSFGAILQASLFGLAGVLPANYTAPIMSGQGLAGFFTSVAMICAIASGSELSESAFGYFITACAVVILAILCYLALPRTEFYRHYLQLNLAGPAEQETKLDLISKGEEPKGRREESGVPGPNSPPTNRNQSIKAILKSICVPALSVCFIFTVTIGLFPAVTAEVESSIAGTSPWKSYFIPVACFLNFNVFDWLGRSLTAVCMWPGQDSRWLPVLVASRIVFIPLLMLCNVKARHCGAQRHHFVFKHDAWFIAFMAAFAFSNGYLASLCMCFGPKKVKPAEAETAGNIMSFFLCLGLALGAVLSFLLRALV
Protocol: To measure adenosine transport activity of ENT-1 mammalian cells, stable cells expressing the mouse ENT-1 transporter were plated on day 1 in 96-well culture plates at the density of 60,000 cells/well, in complete DMEM/F12 medium supplemented with glutamax, 10% FBS and 10 μg/ml puromycin. On day 2, the medium was aspirated and the cells were washed twice with uptake buffer (10 mM Hepes-Tris, pH 7.4 containing 150 mM NaCl, 1 mM CaCl2, 2.5 mM KCl, 2.5 mM MgSO4, 10 mM D-glucose) (UB). For inhibition experiments, cells were then incubated at RT with various concentrations of compounds with 1% DMSO final. Non-specific uptake was defined in the presence of 10 μM S-(4-Nitrobenzyl)-6-thioinosine (NBTI, Sigma Cat #N2255). A solution containing [2,8-^3H]-adenosine 6 nM (40 Ci/mmol, American Radiolabeled chemicals Inc, Cat #ART 0287A) was then immediately added to the wells. The plates were then incubated for 20 min with gentle shaking and the reaction was stopped by aspiration of the mixture and washing (three times) with ice-cold UB. The cells were lysed by the addition of scintillation liquid, shaken 3 hours and the radioactivity in the cells was estimated using a microplates scintillation counter (TopCount NXT, Packard).

SMILES | pIC50
Cc1ncc(-c2ccc3c(c2)N(c2cc4c(cn2)C(C)(C)C(=O)N4)C(=O)C3(C)C)cn1 [Example 43, 6-(3,3-Dimethyl-6-(2-methylpyrimidin-5-yl)-2-oxoindolin-1-yl)-3,3-dimethyl-1H-pyrrolo[3,2-c]pyridin-2(3H)-one] | 6.41
Cc1ncc(-c2ccc3c(c2)N(c2cc4c(cn2)C(C)(C)C(=O)N4C2CC2)C(=O)C3(C)C)cn1 [Example 40, 1-Cyclopropyl-6-(3,3-dimethyl-6-(2-methylpyrimidin-5-yl)-2-oxoindolin-1-yl)-3,3-dimethyl-1H-pyrrolo [3,2-c]pyridin-2(3H)-one] | 6.31
Cc1ncc(-c2ccc3c(c2)N(c2ccc4c(c2)N(C2COC2)C(=O)C4(C)C)C(=O)C3(C)C)cn1 [Example 59, 3,3,3′,3′-Tetramethyl-6-(2-methylpyrimidin-5-yl)-1′-(oxetan-3-yl)-[1,6′-biindoline]-2,2′-dione] | 6.69
COc1ccc(CN2C(=O)C(C)(C)c3ccc(N4C(=O)C(C)(C)c5ccc(-c6cnc(C)nc6)cc54)cc32)cc1 [Example 42, 1′-(4-Methoxybenzyl)-3,3,3′,3′-tetramethyl-6-(2-methylpyrimidin-5-yl)-[1,6′-biindoline]-2,2′-dione] | 6.71
Cc1ncc(-c2ccc3c(c2)N(c2ccc(C)c(N4CCOCC4)n2)C(=O)C3(C)C)cn1 [Example 31, 3,3-Dimethyl-1-(5-methyl-6-morpholinopyridin-2-yl)-6-(2-methylpyrimidin-5-yl)indolin-2-one] | 7.40
Cc1ncc(-c2ccc3c(c2)N(c2cnc(N4CCOCC4)cn2)C(=O)C3(C)C)cn1 [Example 49, 3,3-Dimethyl-6-(2-methylpyrimidin-5-yl)-1-(5-morpholinopyrazin-2-yl)indolin-2-one] | 6.38
Cc1ncc(-c2ccc3c(c2)N(c2nccc(N4CCOCC4)n2)C(=O)C3(C)C)cn1 [Example 24, 3,3-Dimethyl-6-(2-methylpyrimidin-5-yl)-1-(4-morpholinopyrimidin-2-yl)indolin-2-one] | 6.49
Cc1ncc(-c2ccc3c(c2)N(c2cncc(N4C(=O)O[C@H]5CC[C@H]54)n2)C(=O)C3(C)C)cn1 (racemic) [Example 55, rac-(1S,5R)-4-(6-(3,3-Dimethyl-6-(2-methylpyrimidin-5-yl)-2-oxoindolin-1-yl)pyrazin-2-yl)-2-oxa-4-azabicyclo[3.2.0]heptan-3-one] | 7.61
Cc1ncc(-c2ccc3c(c2)N(c2cncc(N4CCC(F)(F)CC4)n2)C(=O)C3(C)C)cn1 [Example 6, 1-(6-(4,4-Difluoropiperidin-1-yl)pyrazin-2-yl)-3,3-dimethyl-6-(2-methylpyrimidin-5-yl)indolin-2-one] | 7.49
Cc1ncc(-c2ccc3c(c2)N(c2cnc4[nH]c(=O)[nH]c4n2)C(=O)C3(C)C)cn1 [Example 36, 5-(3,3-Dimethyl-6-(2-methylpyrimidin-5-yl)-2-oxoindolin-1-yl)-1H-imidazo[4,5-b]pyrazin-2(3H)-one] | 6.43
Cc1ncc(-c2ccc3c(c2)N(c2ccc(C)c(N4CCOC4=O)n2)C(=O)C3(C)C)cn1 [Example 32, 3-(6-(3,3-Dimethyl-6-(2-methylpyrimidin-5-yl)-2-oxoindolin-1-yl)-3-methylpyridin-2-yl)oxazolidin-2-one] | 7.49
Cc1ncc(-c2ccc3c(c2)N(c2cnc4c(n2)[nH]c(=O)n4C)C(=O)C3(C)C)cn1 [Example 35, 5-(3,3-Dimethyl-6-(2-methylpyrimidin-5-yl)-2-oxoindolin-1-yl)-1-methyl-1H-imidazo[4,5-b]pyrazin-2(3H)-one] | 6.30
Cc1ncc(-c2ccc3c(c2)N(c2cncc(N4CCS(=O)(=O)CC4)n2)C(=O)C3(C)C)cn1 [Example 10, 1-(6-(1,1-Dioxidothiomorpholino)pyrazin-2-yl)-3,3-dimethyl-6-(2-methylpyrimidin-5-yl)indolin-2-one] | 7.53
Cc1ncc(-c2ccc3c(c2)N(c2ccc4c(c2F)N(C)C(=O)C4(C)C)C(=O)C3(C)C)cn1 [Example 46, 7′-Fluoro-1′,3,3,3′,3′-pentamethyl-6-(2-methylpyrimidin-5-yl)-[1,6′-biindoline]-2,2′-dione] | 6.61
Cc1ncc(-c2ccc3c(c2)N(c2ccc4oc(C)nc4n2)C(=O)C3(C)C)cn1 [Example 45, 3,3-Dimethyl-1-(2-methyloxazolo[4,5-b]pyridin-5-yl)-6-(2-methylpyrimidin-5-yl)indolin-2-one] | 6.23

The next lines start with the values.

pIC50 | SMILES
7.06 | COCCNc1cncc(N2C(=O)C(C)(C)c3ccc(-c4cnc(C)nc4)cc32)n1 [Example 8, 1-[6-(2-Methoxyethylamino)pyrazin-2-yl]-3,3-dimethyl-6-(2-methylpyrimidin-5-yl)indol-2-one]
6.41 | Cc1ncc(-c2ccc3c(c2)N(c2cncc(N4C(=O)OC[C@@H]4C(C)C)n2)C(=O)C3(C)C)cn1 [Example 22, (S)-3-(6-(3,3-Dimethyl-6-(2-methylpyrimidin-5-yl)-2-oxoindolin-1-yl)pyrazin-2-yl)-4-isopropyloxazolidin-2-one]
6.96 | COCCNc1nc(N2C(=O)C(C)(C)c3ccc(-c4cnc(C)nc4)cc32)cnc1C [Example 19, 1-(6-((2-Methoxyethyl)amino)-5-methylpyrazin-2-yl)-3,3-dimethyl-6-(2-methylpyrimidin-5-yl)indolin-2-one]
7.26 | COCCN(C)c1cncc(N2C(=O)C(C)(C)c3ccc(-c4cnc(C)nc4)cc32)n1 [Example 12, 1-(6-((2-Methoxyethyl)(methyl)amino)pyrazin-2-yl)-3,3-dimethyl-6-(2-methylpyrimidin-5-yl)indolin-2-one]
7.47 | Cc1ncc(-c2ccc3c(c2)N(c2cncc(N4CCC(C)(O)CC4)n2)C(=O)C3(C)C)cn1 [Example 11, 1-(6-(4-Hydroxy-4-methylpiperidin-1-yl)pyrazin-2-yl)-3,3-dimethyl-6-(2-methylpyrimidin-5-yl)indolin-2-one]
6.61 | Cc1ncc(-c2ccc3c(c2)N(c2cncc(NC4COC4)n2)C(=O)C3(C)C)cn1 [Example 17, 3,3-Dimethyl-6-(2-methylpyrimidin-5-yl)-1-(6-(oxetan-3-ylamino)pyrazin-2-yl)indolin-2-one]
6.62 | Cc1ncc(-c2ccc3c(c2)N(c2cnc(NCCO)cn2)C(=O)C3(C)C)cn1 [Example 52, 1-(5-((2-Hydroxyethyl)amino)pyrazin-2-yl)-3,3-dimethyl-6-(2-methylpyrimidin-5-yl)indolin-2-one]
